We go through one compound from patent publication US20240140970A1, “A […], AND PREPARATION METHOD AND USE THEREOF” (ASCENTAWITS PHARMACEUTICALS, LTD., priority 2021, published 2024).

Series [1] is described as follows: Stability of aqueous solution of AST-2660-D8-sodium salt by 31P-NMR with HMPA as internal standard. The series is classed as physicochemical. The procedure:
This example is to study the stability of the sample solution by detecting the content of the aqueous solution of AST-2660-D8-sodium salt: ^31P-NMR was used for detection, and the content of the aqueous solution of AST-2660-D8-sodium salt was characterized by comparing the area ratio of ^31peak of HMPA as an internal standard to that of ^31P peak of AST-2660-D8 sodium salt within 48 hours, thereby determining whether the mass of the sample solution was reduced as a result of degradation.
^31P-NMR of the samples was run on an NMR instrument.
HMPA (21.8 mg, 0.1217 mmol) was dissolved in water (2.20 mL), wherein the total mass was […], and the concentration of HMPA was 5.72×10^−5 mmol/mg. A solution of AST-2660-D8-sodium salt (588 mg, about 0.5 mL) and a solution of HMPA (293 mg, 1.676×10^−2 mmol) were mixed together as samples for 31 P-NMR analysis under −20° C. storage conditions at different times. The ratio of integrated peak area of the nuclear magnetic peak (about 29.874 ppm) for the corresponding HMPA to that of the nuclear magnetic peak (about 24.491 ppm) for AST-2660-D8-sodium salt in the nuclear magnetic spectrum was calculated, and the integrated peak of the nuclear magnetic peak for HMPA was set as 1.
According to the same operation, a sample with another concentration was formulated for detection, and ^31P-NMR analysis was performed under −78° C. storage conditions at different times. […]

The nature of series [2]: Stability of AST-2660 and AST-2660-D8 methanol stock/working solutions (LC-MS/MS peak area, stored vs fresh solution). The series is classed as physicochemical. How it is done: The relevant parameters of the LC-MS/MS experimental method are provided.
AST-2660 (prepared by referring to Example 1 and selecting non-deuterated raw materials) standard stock solution (methanol solution with a concentration of 1.0 mg/ml): an appropriate amount of AST-2660 was taken, added with an appropriate amount of methanol, diluted and mixed thoroughly to obtain 1.0 mg/ml of solution.
A 100 μL standard stock solution of AST-2660 was taken, added with 9900 μL of methanol, diluted and mixed thoroughly to obtain 10.0 μg/ml of calibration standard working solution.
[…] A 20 μL of internal standard stock solution of AST-2660-D8 was taken, added with 9980 μL methanol, diluted and mixed thoroughly to obtain 100 ng/ml of internal standard working solution.
It can be seen from Table 10 that the accuracy of the stability of the AST-2660 working solution and the internal standard AST-2660-D8 working solution was within ±8.1%, and the precision was less than 5.5%. Stability analysis criteria: the difference between the storage stable solution and the freshly prepared solution must be within ±10.0%, and the CV of each replicate experiment must not be greater than 10.0%. Therefore, both AST-2660 and AST-2660-D8 (internal standard) working solutions had good stability and met the requirements under various storage conditions.

Setting [3] is: 100 ng/ml methanol solution, fresh stock solution, t = 0.
Setting [4] is: 100 ng/ml methanol solution, working solution stored at −70° C., t = 26 days.
Setting [5] is: 1 mg/ml methanol solution, fresh stock solution, t = 0.
Setting [6] is: 1 mg/ml methanol solution, stock solution stored at −70° C., t = 26 days.

Each structure is given as a SMILES string. Several values for one entry are separate records, joined by “and”; a condition that tells them apart may be missing. Identical values can stand only once.

Consider `[2H]C1([2H])N(P(=O)([O-])N2C([2H])([2H])C2([2H])[2H])C1([2H])[2H].[Na+]` [AST-2660-D8 sodium salt], for which the “concentration of AST-2660-D8 sodium salt” value amounted to 1370 µg/mL in series [1] (aqueous solution after storage at −20° C. for 6 months); 1710 µg/mL in series [1] (aqueous solution after storage at −78° C. for 6 months); 1890 µg/mL in series [1] (aqueous solution, day 0). In addition, the decrease of concentration in series [1] (aqueous solution, 6 months of storage at −20° C.) came to 27.5%; in series [1] (aqueous solution, 6 months of storage at −78° C.), 9.5%. Moreover, the “stability of solution (in words)” value in series [1] (stored at −20 to −78° C. for 48 hours (2 days)) is “stable”. Further, in series [2] (100 ng/ml AST-2660-D8 methanol working solution, 26 days at −70° C.), the “RE (% difference, peak area stock vs fresh solution)” value is “RE: 0.9%”. The “Peak area (AST-2660-D8), Mean value” in series [2] (setting [3]) is given as 3282130; in series [2] (setting [4]), 3311013; in series [2] (setting [5]) it was 548278.5; in series [2] (setting [6]), 537342.5. The “Peak area (AST-2660-D8), single replicates” value in series [2] (setting [3]) is 3253860 and 3323720 and 3204960 and 3285390 and 3314390 and 3310460; in series [2] (setting [4]), 3289570 and 3332520 and 3294750 and 3307750 and 3306110 and 3335380; in series [2] (setting [5]), 574450 and 589227 and 535059 and 530296 and 537317 and 523322; in series [2] (setting [6]) it was 539154 and 532283 and 520321 and 550350 and 532469 and 549478. The “Deviation % over fresh stock solution” value in series [2] (setting [4]) was 0.9%; in series [2] (setting [6]) it was −2.0%. Moreover, the “stability of methanol solution (in words)” value in series [2] (stored for 26 days at −70° C.) is “strong stability”.
